Results on 25 molecules are retold here after patent US20120172384A1, “HETEROCYCLYLAMINOPYRIMIDINES AS KINASE INHIBITORS” (priority 2009, published 2012).

The assay concerns the target T1, JAK3 (Homo sapiens, UniProt P52333).
T1 construct: endogenous in cells
T1 sequence (P52333 1-1124): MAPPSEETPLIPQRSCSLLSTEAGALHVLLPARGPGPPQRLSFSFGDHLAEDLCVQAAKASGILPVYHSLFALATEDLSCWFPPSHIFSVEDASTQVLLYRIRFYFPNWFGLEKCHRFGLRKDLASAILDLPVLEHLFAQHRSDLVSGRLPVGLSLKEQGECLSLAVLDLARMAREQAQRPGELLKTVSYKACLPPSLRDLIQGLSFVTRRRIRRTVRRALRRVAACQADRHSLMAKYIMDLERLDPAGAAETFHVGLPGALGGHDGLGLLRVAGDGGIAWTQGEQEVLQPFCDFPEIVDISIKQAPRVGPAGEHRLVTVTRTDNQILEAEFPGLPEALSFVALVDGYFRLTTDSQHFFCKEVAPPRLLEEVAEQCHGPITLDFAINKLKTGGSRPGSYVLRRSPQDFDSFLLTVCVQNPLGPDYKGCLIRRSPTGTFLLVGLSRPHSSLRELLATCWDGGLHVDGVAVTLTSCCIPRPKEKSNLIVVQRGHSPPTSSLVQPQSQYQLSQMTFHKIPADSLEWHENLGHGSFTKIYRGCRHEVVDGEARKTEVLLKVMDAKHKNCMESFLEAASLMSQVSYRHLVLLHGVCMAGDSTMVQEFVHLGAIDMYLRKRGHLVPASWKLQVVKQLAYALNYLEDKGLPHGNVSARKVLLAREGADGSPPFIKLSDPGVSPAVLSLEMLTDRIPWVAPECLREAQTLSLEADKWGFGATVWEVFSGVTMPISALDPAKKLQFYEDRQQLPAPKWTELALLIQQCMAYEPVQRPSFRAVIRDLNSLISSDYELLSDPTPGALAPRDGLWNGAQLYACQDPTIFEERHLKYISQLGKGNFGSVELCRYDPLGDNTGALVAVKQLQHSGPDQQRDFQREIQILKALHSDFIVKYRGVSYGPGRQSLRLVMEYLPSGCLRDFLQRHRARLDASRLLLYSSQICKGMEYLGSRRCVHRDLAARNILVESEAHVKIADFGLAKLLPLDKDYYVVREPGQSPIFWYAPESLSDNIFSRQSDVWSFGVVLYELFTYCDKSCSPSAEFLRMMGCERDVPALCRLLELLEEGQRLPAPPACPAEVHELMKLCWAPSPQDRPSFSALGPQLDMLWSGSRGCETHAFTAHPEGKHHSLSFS
The assay can be described thus: JAK3 kinobeads assay. In kind it is binding. Conditions: cell lysate, dot blot with JAK3 specific antibody. Here is the method:
The compounds of the present invention as described in the previous examples were tested in the ZAP-70 kinobeads assay as described (EP-A 1862802 and WO-A 2007/137867). Briefly, test compounds (at various concentrations) and the affinity matrix with the immobilized aminopyrido-pyrimidine ligand 24 are added to cell lysate aliquots and allowed to bind to the proteins in the lysate sample. After the incubation time the beads with captured proteins are separated from the lysate. Bound proteins are then eluted and the presence ZAP-70 is detected and quantified using a specific antibody in a dot blot procedure and the Odyssey infrared detection system.
Compounds were tested by the procedure described in Example 102 but using a JAK3 specific antibody (Cell Signaling Technology, Inc., Danvers, US, catalogue number 3775) instead of a ZAP70 antibody.
As to `COc1ccc(Nc2nc(Nc3ccn(C(C)C)n3)ncc2F)c(NS(C)(=O)=O)c1` [Example 48, N-(2-((5-fluoro-2-((1-isopropyl-1H-pyrazol-3-yl)amino)pyrimidin-4-yl)amino)-5-methoxyphenyl)methanesulfonamide], the IC50 (commonly the midpoint of a concentration-inhibition curve) lay within 0.1 to 1 µM. Then `Cc1nn(CC(F)F)cc1Nc1ncc(F)c(Nc2ccccc2NS(C)(=O)=O)n1` [Example 72, N-(2-((2-((1-(2,2-difluoroethyl)-3-methyl-1H-pyrazol-4-yl)amino)-5-fluoropyrimidin-4-yl)amino)phenyl)methanesulfonamide], with 0.1 to 1 µM; and `CCS(=O)(=O)Nc1ccccc1Nc1nc(Nc2ccn(C)n2)ncc1F` [Example 63, N-(2-((5-fluoro-2-((1-methyl-1H-pyrazol-3-yl)amino)pyrimidin-4-yl)amino)phenyl)ethanesulfonamide], with 1 to 10 µM. Under `Cn1cc(Nc2ncc(Cl)c(Nc3cccc(F)c3NS(C)(=O)=O)n2)cn1` [Example 89, N-(2-((5-chloro-2-((1-methyl-1H-pyrazol-4-yl)amino)pyrimidin-4-yl)amino)-6-fluorophenyl)methanesulfonamide] stands ≤ 0.1 µM; under `CCCn1ccc(Nc2ncc(Cl)c(Nc3ccccc3NS(C)(=O)=O)n2)n1` [Example 46, N-(2-((5-chloro-2-((1-propyl-1H-pyrazol-3-yl)amino)pyrimidin-4-yl)amino)phenyl)methanesulfonamide], ≤ 0.1 µM; under `Cc1cc(Nc2ncc(Cl)c(Nc3ccccc3NS(C)(=O)=O)n2)nn1CC(F)(F)F` [Example 83, N-(2-((5-chloro-2-((5-methyl-1-(2,2,2-trifluoroethyl)-1H-pyrazol-3-yl)amino)pyrimidin-4-yl)amino)phenyl)methanesulfonamide], 0.1 to 1 µM. Take `COCCn1cc(Nc2ncc(Cl)c(Nc3ccccc3NS(C)(=O)=O)n2)cn1` [Example 52, N-(2-((5-chloro-2-((1-(2-methoxyethyl)-1H-pyrazol-4-yl)amino)pyrimidin-4-yl)amino)phenyl)methanesulfonamide]: the IC50 is ≤ 0.1 µM.

Regarding `COCCn1cc(Nc2ncc(Cl)c(Nc3cccc(F)c3NS(C)(=O)=O)n2)cn1` [Example 93, N-(2-((5-chloro-2-((1-(2-methoxyethyl)-1H-pyrazol-4-yl)amino)pyrimidin-4-yl)amino)-6-fluorophenyl)methanesulfonamide], the concentration for half-maximal inhibition (IC50) is ≤ 0.1 µM.

In turn, `COc1nn(CC(F)(F)F)cc1Nc1ncc(F)c(Nc2ccccc2NS(C)(=O)=O)n1` [Example 74, N-(2-((5-fluoro-2-((3-methoxy-1-(2,2,2-trifluoroethyl)-1H-pyrazol-4-yl)amino)pyrimidin-4-yl)amino)phenyl)methanesulfonamide] showed an IC50 of 1 to 10 µM.

On to `Cn1ccc(Nc2ncc(Cl)c(Nc3ccccc3NS(=O)(=O)C3CC3)n2)n1` [Example 53, N-(2-((5-chloro-2-((1-methyl-1H-pyrazol-3-yl)amino)pyrimidin-4-yl)amino)phenyl)cyclopropanesulfonamide], for which the half-inhibitory concentration (IC50) fell in the range of 0.1 to 1 µM.

`CCS(=O)(=O)Nc1ccccc1Nc1nc(Nc2ccn(C)n2)ncc1Cl` [Example 56, N-(2-((5-chloro-2-((1-methyl-1H-pyrazol-3-yl)amino)pyrimidin-4-yl)amino)phenyl)ethanesulfonamide] came in with an IC50 of 0.1 to 1 µM. On to `COc1nn(CC(F)(F)F)cc1Nc1ncc(Cl)c(Nc2ccccc2NS(C)(=O)=O)n1` [Example 82, N-(2-((5-chloro-2-((3-methoxy-1-(2,2,2-trifluoroethyl)-1H-pyrazol-4-yl)amino)pyrimidin-4-yl)amino)phenyl)methanesulfonamide], for which the IC50 was in the range of 0.1 to 1 µM.

Turning to `Cn1cc(Nc2ncc(F)c(Nc3cccc(F)c3NS(C)(=O)=O)n2)cn1` [Example 99, N-(2-fluoro-6-((5-fluoro-2-((1-methyl-1H-pyrazol-4-yl)amino)pyrimidin-4-yl)amino)phenyl)methanesulfonamide], the IC50 was ≤ 0.1 µM.

For `CNC(=O)c1cc(Nc2ncc(Cl)c(Nc3ccccc3NS(C)(=O)=O)n2)nn1C` [Example 97, 3-((5-chloro-4-((2-(methylsulfonamido)phenyl)amino)pyrimidin-2-yl)amino)-N,1-dimethyl-1H-pyrazole-5-carboxamide], the half-inhibitory concentration (IC50) was ≤ 0.1 µM. Turning to `CCS(=O)(=O)Nc1ccccc1Nc1nc(Nc2cnn(C)c2)ncc1F` [Example 62, N-(2-((5-fluoro-2-((1-methyl-1H-pyrazol-4-yl)amino)pyrimidin-4-yl)amino)phenyl)ethanesulfonamide], the IC50 was 0.1 to 1 µM.

`CS(=O)(=O)Nc1ccccc1Nc1nc(Nc2cnn(CC(F)F)c2)ncc1F` [Example 85, N-(2-((2-((1-(2,2-difluoroethyl)-1H-pyrazol-4-yl)amino)-5-fluoropyrimidin-4-yl)amino)phenyl)methanesulfonamide]: the concentration for half-maximal inhibition (IC50) is ≤ 0.1 µM.

The molecule `Cc1cc(Nc2ncc(Cl)c(Nc3ccccc3NS(=O)(=O)C3CC3)n2)nn1C` [Example 55, N-(2-((5-chloro-2-((1,5-dimethyl-1H-pyrazol-3-yl)amino)pyrimidin-4-yl)amino)phenyl)cyclopropanesulfonamide] yielded a half-inhibitory concentration (IC50) of 0.1 to 1 µM. Regarding `Cc1nn(CC(F)F)cc1Nc1ncc(Cl)c(Nc2ccccc2NS(C)(=O)=O)n1` [Example 81, N-(2-((5-chloro-2-((1-(2,2-difluoroethyl)-3-methyl-1H-pyrazol-4-yl)amino)pyrimidin-4-yl)amino)phenyl)methanesulfonamide], the IC50 was ≤ 0.1 µM.

Regarding `CCS(=O)(=O)Nc1ccccc1Nc1nc(Nc2cnn(C)c2)ncc1Cl` [Example 57, N-(2-((5-chloro-2-((1-methyl-1H-pyrazol-4-yl)amino)pyrimidin-4-yl)amino)phenyl)ethanesulfonamide], the IC50 was ≤ 0.1 µM.

Consider `CS(=O)(=O)Nc1ccccc1Nc1nc(Nc2ccon2)ncc1Br` [Example 50, N-(2-((5-bromo-2-(isoxazol-3-ylamino)pyrimidin-4-yl)amino)phenyl)methanesulfonamide], for which the IC50 is ≤ 0.1 µM.

`Cc1cc(Nc2ncc(Br)c(Nc3ccccc3NS(C)(=O)=O)n2)nn1C` [Example 51, N-(2-((5-bromo-2-((1,5-dimethyl-1H-pyrazol-3-yl)amino)pyrimidin-4-yl)amino)phenyl)methanesulfonamide]: the IC50 is ≤ 0.1 µM. Then `Cc1cc(Nc2ncc(F)c(Nc3ccccc3NS(C)(=O)=O)n2)nn1CC(F)(F)F` [Example 75, N-(2-((5-fluoro-2-((5-methyl-1-(2,2,2-trifluoroethyl)-1H-pyrazol-3-yl)amino)pyrimidin-4-yl)amino)phenyl)methanesulfonamide], with 1 to 10 µM; and `CS(=O)(=O)Nc1ccccc1Nc1nc(Nc2cnn(CCCC#N)c2)ncc1Cl` [Example 65, N-(2-((5-chloro-2-((1-(3-cyanopropyl)-1H-pyrazol-4-yl)amino)pyrimidin-4-yl)amino)phenyl)methanesulfonamide], with ≤ 0.1 µM; and `CCn1nc(Nc2ncc(Cl)c(Nc3cccc(F)c3NS(C)(=O)=O)n2)cc1C` [Example 91, N-(2-((5-chloro-2-((1-ethyl-5-methyl-1H-pyrazol-3-yl)amino)pyrimidin-4-yl)amino)-6-fluorophenyl)methanesulfonamide], with ≤ 0.1 µM.

`COc1ccc(Nc2nc(Nc3cc(C4CC4)nn3C)ncc2Cl)c(NS(C)(=O)=O)c1` [Example 9, N-(2-(5-chloro-2-(3-cyclopropyl-1-methyl-1H-pyrazol-5-ylamino)pyrimidin-4-ylamino)-5-methoxyphenyl)methanesulfonamide] displayed a half-maximal inhibitory concentration (IC50) of 0.1 to 1 µM.
